# Results as given in patent US8883801B2, “Substituted pyrazolo[1,5-a]pyrimidines as mTOR inhibitors” (Merck Sharp & Dohme Corp., priority 2010, dated 2014).
# Where two headings read alike, the source gives them in different places.
# Columns and labels:
# [1] = target: human mTOR enzyme (Homo sapiens, UniProt P42345); assay: HTRF mTOR enzyme (kinase) assay; format: biochemical; settings: 5 μM ATP, 0.2 μM GST-S6K, read-out: hMTOR IC50
# [2] = test system: mTORC2 activity: phosphorylated AKT Ser473 (pAKT S473) in PC3 cells; assay: mTOR target engagement assay, immunofluorescent cell-based, mTORC2 readout; settings: Homo sapiens, PC-3, 1.5 h, 90 min treatment
# How it was run: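 Read-out is immunofluorescence intensity, normalized to DMSO-only wells and fitted to a sigmoidal Hill equation for IC50. The mTORC1 arm probes phospho-4E-BP1 Thr37/46 and the mTORC2 arm phospho-AKT Ser473.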
# [3] = test system: mTORC1 activity: phosphorylated 4E-BP1 Thr37/46 (p4E-BP1 Thr37/46) in PC3 cells; assay: mTOR target engagement assay, immunofluorescent cell-based, mTORC1 readout; settings: Homo sapiens, PC-3, 1.5 h, 90 min treatment, read-out: P4EBP1 IC50
# Method: The target engagement of mTOR kinase inhibitors was evaluated using an immunofluorescent cell-based assay. In this assay, inhibition of mTORC1 activity was measured by the reduction in the level of phosphorylated 4E-BP1Thr37/46 (p4E-BP1 Thr37/46), and inhibition of mTORC2 activity was measured by the reduction of phosphorylated AKTSer473 (pAKT S473).
# PC3 cells (prostate tumor cell-line that contains a mutation in the tumor suppressor PTEN, that promotes the phosphorylation and activation of AKT and 4E-BP1) were used in the immunofluorescence assay. PC3 cells were seeded on 384 well plates (black clear bottom, Matrix #4332) overnight. PC3 cells were then treated with 40 μl of the serially diluted test compounds (in 5% fetal bovine serum, F12 medium containing 0.25% DMSO) for ninety minutes at 37° C. The test compound solution was removed, and the plates were washed gently two times with 25 μl phosphate buffered saline (PBS). The cells were fixed by adding 25 μl of Prefer reagent (from Anatech LTD, Cat#414, a glyoxal fixative for fixing proteins within a cell) for sixty minutes followed by three washes with PBS. 5% Goat serum in PBS/0.3% Triton was used to block non-specific binding (60 minutes).
# The primary antibodies targeting pAKT S473 and p4E-BP1 Thr37/46 were diluted into PBS/0.3% Triton and incubated with the cells overnight at 4° C. The antibodies targeting pAKTS473 (Cat#4085, Cell signaling) and p4E-BP1 Thr37/46 (Cat#2855, Cell signaling) were used at a 1:100 dilution. Plates were washed three times with PBS/0.1% Tween 20 before adding the secondary antibody at a 1:200 dilution. (goat anti-rabbit containing a fluorescent label, Alexa Fluor 488, Cat#A11008, Invitrogen) in PBS/0.3% Triton for 60 minutes.
# Finally, the plates were washed three times with PBS/0.1% Tween 20 and the fluorescent intensity was read using an Analyst HT from Molecular Devices. The fluorescent intensity values from the serially diluted compound treatment group were analyzed using the Xlfit 4 program ([…]) (Formula 205: Y=Bottom+(Top-Bottom)/(1+(IC50/X)^Hillslope) to generate the IC50 value. Where Top is the maximum signal without Compound (+DMSO only) and Bottom represents maximum inhibition. Y is the fluorescence at some compound concentration. The control used to determine the fluorescent intensities for 100% pAKT S473 or 100% phosphorylated p4E-BP1 Thr37/46 were measured from untreated wells that contained only DMSO, instead of test compound.
# Sequence of human mTOR enzyme (P42345 1360-2549 limits assumed): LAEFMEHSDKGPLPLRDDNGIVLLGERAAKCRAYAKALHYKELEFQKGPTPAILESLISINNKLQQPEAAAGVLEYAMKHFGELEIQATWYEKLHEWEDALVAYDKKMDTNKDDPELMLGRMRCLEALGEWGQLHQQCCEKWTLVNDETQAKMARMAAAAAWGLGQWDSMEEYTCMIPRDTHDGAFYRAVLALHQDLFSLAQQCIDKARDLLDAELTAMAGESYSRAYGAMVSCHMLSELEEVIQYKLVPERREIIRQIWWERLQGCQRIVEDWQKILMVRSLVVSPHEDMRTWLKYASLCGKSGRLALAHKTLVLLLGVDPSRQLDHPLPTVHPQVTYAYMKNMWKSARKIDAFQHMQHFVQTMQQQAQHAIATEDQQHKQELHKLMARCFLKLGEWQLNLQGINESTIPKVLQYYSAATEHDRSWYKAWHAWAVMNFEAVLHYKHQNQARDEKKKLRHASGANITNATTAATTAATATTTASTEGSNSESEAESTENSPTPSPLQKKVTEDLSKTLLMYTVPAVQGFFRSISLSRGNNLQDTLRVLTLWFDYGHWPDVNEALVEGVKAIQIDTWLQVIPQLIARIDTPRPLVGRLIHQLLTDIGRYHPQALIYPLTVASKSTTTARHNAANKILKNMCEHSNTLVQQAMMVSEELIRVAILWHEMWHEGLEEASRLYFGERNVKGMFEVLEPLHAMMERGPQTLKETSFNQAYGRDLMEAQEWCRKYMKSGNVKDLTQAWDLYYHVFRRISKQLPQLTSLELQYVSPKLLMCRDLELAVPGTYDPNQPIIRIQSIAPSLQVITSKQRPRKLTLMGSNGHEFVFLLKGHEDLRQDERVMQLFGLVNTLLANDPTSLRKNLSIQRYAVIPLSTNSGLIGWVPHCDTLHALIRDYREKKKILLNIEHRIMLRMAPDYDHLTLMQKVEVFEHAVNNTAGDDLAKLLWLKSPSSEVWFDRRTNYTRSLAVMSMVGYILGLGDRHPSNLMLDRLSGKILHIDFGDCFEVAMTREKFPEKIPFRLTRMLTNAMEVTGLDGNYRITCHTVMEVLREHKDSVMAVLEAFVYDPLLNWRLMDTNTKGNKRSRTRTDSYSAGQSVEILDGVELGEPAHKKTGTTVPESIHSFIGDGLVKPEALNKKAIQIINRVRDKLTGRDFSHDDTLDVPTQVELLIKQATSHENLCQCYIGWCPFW
Compound,IC50 ([1]; rated class) [nM],IC50 ([2]; rated class) [nM],IC50 ([3]; rated class) [nM],IC50 ([1]; numeric value) [nM],IC50 ([2]; numeric value) [nM],IC50 ([3]; numeric value) [nM]
"COC[C@]1(C(=O)O)CC[C@H](c2nc3c(-c4ccc(-c5ccccc5)nc4)cnn3c(N)c2C(C)=O)CC1 [Compound 18, (1R,4R)-4-(6-acetyl-7-amino-3-(6-phenylpyridin-3-yl)pyrazolo[1,5-a]pyrimidin-5-yl)-1-(methoxymethyl)-cyclohexane-carboxylic acid]",1 to 100,1 to 100,100 to 1000,–,–,–
"COCCO[C@]1(C(=O)O)CC[C@@H](c2nc3c(-c4ccc(-c5nccs5)nc4)cnn3c(N)c2S(C)(=O)=O)CC1 [Compound 47, (1R,4R)-4-(7-amino-6-(methylsulfonyl)-3-(6-(thiazol-2-yl)pyridin-3-yl)pyrazolo[1,5-a]pyrimidin-5-yl)-1-(2-methoxyethoxy) cyclohexanecarboxylic acid]",1 to 100,2000 to 5000,2000 to 5000,–,–,–
"Nc1c(Br)c(C2CCC(O)(C(=O)O)CC2)nc2c(-c3ccc(-c4ccccc4)nc3)cnn12 (stereo not shown) [Compound 131, 4-(7-amino-6-bromo-3-(6-phenylpyridin-3-yl)pyrazolo[1,5-a]pyrimidin-5-yl)-1-hydroxycyclohexanecarboxylic acid]",1 to 100,1000 to 2000,2000 to 5000,–,–,–
"COCCO[C@]1(C(=O)O)CC[C@@H](c2nc3c(-c4ccc(-c5ccccc5)nc4)cnn3c(N)c2S(C)(=O)=O)CC1 [Compound 44, (1R,4R)-4-(7-amino-6-(methylsulfonyl)-3-(6-phenylpyridin-3-yl)pyrazolo[1,5-a]pyrimidin-5-yl)-1-(2-methoxyethoxy) cyclohexanecarboxylic acid]",1 to 100,100 to 1000,100 to 1000,–,–,–
"COCCOC1(C(=O)NS(C)(=O)=O)CCC(c2nc3c(-c4cnn(-c5ccccc5)c4)cnn3c(N)c2S(C)(=O)=O)CC1 (stereo not shown) [Compound 71, 4-(7-amino-6-(methylsulfonyl)-3-(1-phenyl-1H-pyrazol-4-yl)pyrazolo[1,5-a]pyrimidin-5-yl)-1-(2-methoxyethoxy)-N-(methylsulfonyl)cyclohexanecarboxamide]",1 to 100,1000 to 2000,1000 to 2000,–,–,–
COCCO[C@]1(c2nnc[nH]2)CC[C@@H](c2nc3c(-c4ccc(-c5ccccc5)nc4)cnn3c(N)c2S(C)(=O)=O)CC1 [Compound 128],1 to 100,100 to 1000,100 to 1000,–,–,–
"CNC(=O)[C@]1(OCCOC)CC[C@H](c2nc3c(-c4cnn(-c5ccccc5)c4)cnn3c(N)c2S(C)(=O)=O)CC1 [Compound 90, (1R,4R)-4-(7-amino-6-(methylsulfonyl)-3-(1-phenyl-1H-pyrazol-4-yl)pyrazolo[1,5-a]pyrimidin-5-yl)-1-(2-methoxyethoxy)-N-methylcyclohexane-carboxamide]",1 to 100,100 to 1000,1000 to 2000,–,–,–
COCCO[C@]1(C(N)=O)CC[C@@H](c2nc3c(-c4ccc(-c5ccccc5)nc4)cnn3c(N)c2S(C)(=O)=O)CC1 [Compound 111],–,–,–,1,48,141
"COCCO[C@]1(C#N)CC[C@@H](c2nc3c(-c4cnn(-c5ccccc5)c4)cnn3c(N)c2S(C)(=O)=O)CC1 [Compound 117, (1R,4R)-4-(7-amino-6-(methylsulfonyl)-3-(1-phenyl-1H-pyrazol-4-yl)pyrazolo[1,5-a]pyrimidin-5-yl)-1-(2-methoxyethoxy)cyclohexanecarbonitrile]",1 to 100,100 to 1000,1000 to 2000,–,–,–
"COCCOCC1(C(=O)O)CCC(c2nc3c(-c4ccc(-c5ccccc5)nc4)cnn3c(N)c2C(C)=O)CC1 (stereo not shown) [Compound 24, 4-(6-acetyl-7-amino-3-(6-phenylpyridin-3-yl)pyrazolo[1,5-a]pyrimidin-5-yl)-1-((2-methoxyethoxy)methyl)cyclohexane-carboxylic acid]",1 to 100,100 to 1000,–,–,–,–
"COCCO[C@]1(C(=O)O)CC[C@@H](c2nc3c(-c4cnn(-c5ccccc5)c4)cnn3c(N)c2C(C)=O)CC1 [Compound 55, (1R,4R)-4-(6-acetyl-7-amino-3-(1-phenyl-1H-pyrazol-4-yl)pyrazolo[1,5-a]pyrimidin-5-yl)-1-(2-methoxyethoxy)cyclohexanecarboxylic acid]",1 to 100,100 to 1000,–,–,–,–
"COC1(CO)CCC(c2nc3c(-c4ccc(-c5ccccc5)nc4)cnn3c(N)c2Br)CC1 (stereo not shown) [Compound 82, (4-(7-amino-6-bromo-3-(6-phenylpyridin-3-yl)pyrazolo[1,5-a]pyrimidin-5-yl)-1-methoxycyclohexyl)methanol]",1 to 100,100 to 1000,–,–,–,–
"COC[C@]1(C(=O)O)CC[C@@H](c2nc3c(-c4ccc(-c5ccccc5)nc4)cnn3c(N)c2C(C)=O)CC1 [Compound 19, (1S,4S)-4-(6-acetyl-7-amino-3-(6-phenylpyridin-3-yl)pyrazolo[1,5-a]pyrimidin-5-yl)-1-(methoxymethyl)-cyclohexane-carboxylic acid]",1 to 100,100 to 1000,–,–,–,–
"CS(=O)(=O)C1(C(=O)O)CCC(c2nc3c(-c4cnn(-c5ccccc5)c4)cnn3c(N)c2Br)CC1 (stereo not shown) [Compound 27, 4-(7-amino-6-bromo-3-(1-phenyl-1H-pyrazol-4-yl)pyrazolo[1,5-a]pyrimidin-5-yl)-1-(methylsulfonyl)cyclohexanecarboxylic acid]",1 to 100,2000 to 5000,–,–,–,–
"Nc1c(Br)c(C2CCC(O)(CO)CC2)nc2c(-c3ccc(-c4ccccc4)nc3)cnn12 (stereo not shown) [Compound 134, 4-(7-amino-6-bromo-3-(6-phenylpyridin-3-yl)pyrazolo[1,5-a]pyrimidin-5-yl)-1-(hydroxymethyl)cyclohexanol]",–,–,–,7.37,209,–
"COCCO[C@]1(C(=O)NN)CC[C@@H](c2nc3c(-c4cnn(-c5ccccc5)c4)cnn3c(N)c2S(C)(=O)=O)CC1 [Compound 107, (1R,4R)-4-(7-amino-6-(methylsulfonyl)-3-(1-phenyl-1H-pyrazol-4-yl)pyrazolo[1,5-a]pyrimidin-5-yl)-1-(2-methoxyethoxy)-cyclohexane-carbohydrazide]",1 to 100,100 to 1000,–,–,–,–
"COCC1(C(=O)O)CCC(c2nc3c(-c4cnn(-c5ccccc5)c4)cnn3c(N)c2Br)CC1 (stereo not shown) [Compound 6, 4-(7-amino-6-bromo-3-(1-phenyl-1H-pyrazol-4-yl)pyrazolo[1,5-a]pyrimidin-5-yl)-1-(methoxymethyl)-cyclohexane-carboxylic acid]",1 to 100,1000 to 2000,–,–,–,–
"COC[C@]1(C(=O)O)CC[C@@H](c2nc3c(-c4cnc5ccc(F)cc5c4)cnn3c(N)c2Br)CC1 [Compound 8, (1S,4S)-4-(7-amino-6-bromo-3-(6-fluoroquinolin-3-yl)pyrazolo[1,5-a]pyrimidin-5-yl)-1-(methoxymethyl)-cyclohexane-carboxylic acid]",1 to 100,5000 to 15000,–,–,–,–
"COC(=O)c1cc(-c2ccc(-c3cnn4c(N)c(C(C)=O)c([C@H]5CC[C@@](O)(CO)CC5)nc34)cn2)ccc1OC [Compound 153, methyl 5-(5-(6-acetyl-7-amino-5-((1R,4R)-4-hydroxy-4-(hydroxymethyl)-cyclohexyl)-pyrazolo-[1,5-a]pyrimidin-3-yl)pyridin-2-yl)-2-methoxybenzoate]",1 to 100,5000 to 15000,–,–,–,–
"CC(=O)c1c(N)n2ncc(-c3ccc(-c4ccccc4)nc3)c2nc1[C@H]1CC[C@@](OCCN2CCOCC2)(C(=O)O)CC1 [Compound 58, (1R,4R)-4-(6-acetyl-7-amino-3-(6-phenylpyridin-3-yl)pyrazolo[1,5-a]pyrimidin-5-yl)-1-(2-morpholinoethoxy) cyclohexanecarboxylic acid]",1 to 100,100 to 1000,–,–,–,–
